This note sets out measurements from patent publication US12281121B2, “N-containing heteroaryl derivative and pharmaceutical composition comprising same as active ingredient for prevention or treatment of cancer” (VORONOI Inc., priority 2019, dated 2025).

SMILES strings stand for the structures.

Assay [1] relates to Ba/F3 KIF5B-RET (V804M) cells. Description: Cell proliferation inhibition, CellTiter-Glo. The class given is cell-based. Conditions: Mus musculus, BaF3, 72 hours. As to the method:
(§1) Among lung cancer cell lines, which express RET fusion genes, LC-2/ad cells were cultured after adding 10% FBS (HyClone) to RPMI:F12 (1:1) (Invitrogen), and F-12 (Invitrogen) supplemented with 10% FBS was used for TT cells. RPMI-1640 supplemented with 10% FBS and 5 ng/ml IL-3 (R&D Systems) was used for Ba/F3 cells. Transduced Ba/F3 cells were cultured by adding 1 ug/ml puromycin (Invitrogen) to the same medium. 24 hours before cells were treated with the compound, 3000 to 5000 cells were aliquoted into each well of a white clear bottom 96 well plate (Corning). The compound was diluted in DMSO (3-fold dilution, a total of 12 concentrations) and the compound was injected by 0.5 μl such that the final concentration was 0.3 nM to 50 μM. For the measurement of living cells, 72 hours after the compound treatment, the cells were stored at room temperature for 10 minutes using a CellTiter-Glo luminescent cell-viability agent (Promega), and then the luminescence intensity was measured using a reader (SynergyNeo, Biotek). Each experiment was repeated in triplicate. The result value was calculated by the cell growth ratio (%) compared to the control. A graph was drawn using the GraphPad Prism version 5.0 program, and a GI50 (nM) value was calculated.
(§2) In the cell assay column, LC-2/ad (with CCDC6-RET gene) is a lung cancer cell line, a TT cell line ([…]) is a thyroid cancer cell line, Ba/F3 CCDC6-RET (WT), Ba/F3 KIF5B-RET (WT), and Ba/F3 KIF5B-RET (V804M) are cells in which disease-related traits (CCDC6-RET, KIF5B-RET, and KIF5B-RET (V804M)) are introduced into Ba/F3 cells, and Ba/F3 (naive) is a cell which is not transduced.
Background: Cellular ATP, detected with luciferase, serves as a proxy for viable cell number.

The test system of assay [2] is Ba/F3 KIF5B-RET (WT) cells. Kind of assay: Cell proliferation inhibition, CellTiter-Glo. The format is cell-based. Conditions: Mus musculus, BaF3, 72 hours. As to the method:
as §1, §2

The subject of a further assay is Ba/F3 (naive) cells. Kind of assay: Cell proliferation inhibition, CellTiter-Glo. The class given is cell-based. To be noted: Mus musculus, BaF3; Ba/F3 not transduced, 72 hours. As for the experimental part: as §1, §2
Assay [3] has as its system Ba/F3 CCDC6-RET (WT) cells. Description: Cell proliferation inhibition, CellTiter-Glo. The class given is cell-based. To be noted: BaF3/CCDC6-RET, 72 hours. As for the experimental part:
as §1, §2

Another assay concerns the target T1, RET (WT) (Homo sapiens, UniProt P07949).
T1 construct: human RET (658-end, SIGNALCHEM); purchased SIGNALCHEM
T1 sequence (P07949 658-1114 limits assumed): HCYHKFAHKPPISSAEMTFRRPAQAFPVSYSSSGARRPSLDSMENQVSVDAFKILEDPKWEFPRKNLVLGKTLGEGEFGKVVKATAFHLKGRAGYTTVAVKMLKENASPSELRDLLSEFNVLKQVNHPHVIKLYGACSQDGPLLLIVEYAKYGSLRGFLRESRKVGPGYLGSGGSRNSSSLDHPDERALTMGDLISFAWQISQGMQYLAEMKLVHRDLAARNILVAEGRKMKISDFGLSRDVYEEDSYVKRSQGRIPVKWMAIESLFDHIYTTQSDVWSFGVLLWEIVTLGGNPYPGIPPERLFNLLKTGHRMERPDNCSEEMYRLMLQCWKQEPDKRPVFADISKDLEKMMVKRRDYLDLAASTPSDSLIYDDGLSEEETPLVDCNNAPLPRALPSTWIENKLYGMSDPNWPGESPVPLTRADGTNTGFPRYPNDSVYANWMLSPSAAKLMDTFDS
Kind of assay: RET enzyme inhibitory ability, ADP-Glo kinase assay. The format is biochemical. Conditions: ATP 10 μM, 25° C., 1 hour. As for the experimental part: The Example compound was reacted with a purified human RET (658-end, SIGNALCHEM) enzyme to evaluate the enzyme inhibitory ability by the following method. As a reaction buffer, a composition of 40 mM Tris-HCl pH 7.4, 20 mM MgCl2, 0.5 mg/mL BSA, and 50 μM DTT was used, and all experimental materials were reacted on the reaction buffer. After the human RET (658-end, 0.8 ng) enzyme was reacted with purified ATP (10 μM) and a specific substrate solution at 25° C. for 1 hour during the experiment, the enzyme activity was confirmed using in vitro ADP-Glo™ kinase assay (Promega). Luminescence was measured by reacting the enzyme activity reaction solution, the ADP-Glo reaction solution, and the enzyme activity detection solution at a ratio of 2:2:1. The degree of inhibition of enzyme activity according to the treatment concentration of each compound was calculated based on the […] of the enzyme activity of a solvent control group in which a compound was not treated, and in this case, the concentration of each compound which suppresses the […] enzyme activity by 50% was determined as an IC50 (nM) value. The IC50 (nM) of each compound was determined by 3 datasets and obtained using Prism (version 7.01, GraphPad) software.
In the enzyme assay column, RET (WT) is a non-mutated form, RET (V804M) is a mutated form in which the V amino acid at position 804 of the RET is substituted with M, and CCDC6-RET is a form in which the RET (WT) gene and CCDC6 gene are fused.
For orientation: ADP-Glo first removes unused ATP, then detects ADP through luciferase.

One may read the GI50 as the concentration that inhibits growth by half. The term IC50 denotes the concentration that gives 50% inhibition. A high value points to lower potency.

Take `COc1ncc(CN2C3CC2CN(c2ccc(-c4nc(Nc5cc(C)[nH]n5)c5ccccc5n4)cn2)C3)cc1Cl` [Example 16, 2-(6-(6-((5-chloro-6-methoxypyridin-3-yl)methyl)-3,6-diazabicyclo [3.1.1]heptan-3-yl)pyridin-3-yl)-N-(5-methyl-1H-pyrazol-3-yl)quinazolin-4-amine]: the GI50 in assay [1] was 39 nM; in assay [2], 42 nM; in the assay on Ba/F3 (naive) cells, 4010 nM; in assay [3], 127 nM. For the same compound, the IC50 against RET (WT) was 60 nM.

Regarding `COc1cnc(CN2C3CC2CN(c2ccc(-c4nc(Nc5cc(C)[nH]n5)c5ccccc5n4)cn2)C3)cn1` [Example 17, 2-(6-(6-((5-methoxypyrazin-2-yl)methyl)-3,6-diazabicyclo [3.1.1]heptan-3-yl)pyridin-3-yl)-N-(5-methyl-1H-pyrazol-3-yl)quinazolin-4-amine], the GI50 worked out at 7 nM in assay [1], 10 nM in assay [2], 867 nM with Ba/F3 (naive) cells and 46 nM in assay [3]. The IC50 on RET (WT) was 11 nM.

Take `Cc1cc(Nc2nc(-c3ccc(N4CC5CC(C4)N5Cc4ccc5ncccc5c4)nc3)nc3ccccc23)n[nH]1` [Example 18, N-(5-methyl-1H-pyrazol-3-yl)-2-(6-(6-(quinolin-6-ylmethyl)-3,6-diazabicyclo [3.1.1]heptan-3-yl)pyridin-3-yl)quinazolin-4-amine]: the concentration for 50% growth inhibition (GI50) in assay [1] is 25 nM; in assay [2] it was 28 nM; in the assay with Ba/F3 (naive) cells, 4600 nM; in assay [3] it was 67 nM. On RET (WT), the IC50 amounted to 34 nM.

Consider `Cc1csc(CN2C3CC2CN(c2ccc(-c4nc(Nc5cc(C)[nH]n5)c5ccccc5n4)cn2)C3)n1` [Example 19, N-(5-methyl-1H-pyrazol-3-yl)-2-(6-(6-((4-methylthiazol-2-yl)methyl)-3,6-diazabicyclo [3.1.1]heptan-3-yl)pyridin-3-yl)quinazolin-4-amine], for which the concentration for 50% growth inhibition (GI50) in assay [1] turned out to be 28 nM; in assay [2], 29 nM; with Ba/F3 (naive) cells it was 1230 nM; in assay [3], 120 nM. This compound also came in with an IC50 on RET (WT) of 40 nM.

Turning to `Cc1cc(Nc2nc(-c3ccc(N4CC5CC(C4)N5Cc4ccc(N(C)C)nc4)nc3)nc3ccccc23)n[nH]1` [Example 20, 2-(6-(6-((6-(di-methylamino)py-ridin-3-yl)meth-yl)-3,6-diazabicyclo [3.1.1]heptan-3-yl)pyridin-3-yl)-N-(5-methyl-1H-pyrazol-3-yl)quinazolin-4-amine], the concentration for 50% growth inhibition (GI50) was determined as 6 nM in assay [1], 11 nM in assay [2], 2780 nM in the assay with Ba/F3 (naive) cells and 44 nM in assay [3]. The compound also displayed a 50% inhibitory concentration (IC50) against RET (WT) of 14 nM.

Regarding `Cc1cc(Nc2nc(-c3ccc(N4CC5CC(C4)N5Cc4ccc(F)cc4)nc3)nc3ccccc23)n[nH]1` [Example 22, 2-(6-(6-(4-fluorobenzyl)-3,6-diazabicyclo [3.1.1]heptan-3-yl)pyridin-3-yl)-N-(5-methyl-1H-pyrazol-3-yl)quinazolin-4-amine], the GI50 in assay [1] is 6 nM; in assay [2], 20 nM; in the assay with Ba/F3 (naive) cells it was 1220 nM; in assay [3], 55 nM. The compound further registered a 50% inhibitory concentration (IC50) at RET (WT) of 20 nM.

For `Cc1cc(Nc2nc(-c3ccc(N4CC5CC(C4)N5Cc4ccc(F)nc4)nc3)nc3ccccc23)n[nH]1` [Example 23, 2-(6-(6-((6-fluoropyridin-3-yl)methyl)-3,6-diazabicyclo [3.1.1]heptan-3-yl)pyridin-3-yl)-N-(5-methyl-1H-pyrazol-3-yl)quinazolin-4-amine], the GI50 in assay [1] is 19 nM; in assay [2] it was 14 nM; in the assay with Ba/F3 (naive) cells it was 1300 nM; in assay [3], 57 nM. This compound returned a half-maximal inhibitory concentration (IC50) at RET (WT) of 15 nM.

`CCOc1ccc(CN2C3CC2CN(c2ccc(-c4nc(Nc5cc(C)[nH]n5)c5ccccc5n4)cn2)C3)cn1` [Example 24, 2-(6-(6-((6-ethoxypyridin-3-yl)methyl)-3,6-diazabicyclo [3.1.1]heptan-3-yl)pyridin-3-yl)-N-(5-methyl-1H-pyrazol-3-yl)quinazolin-4-amine]: the 50% growth inhibitory concentration (GI50) turned out to be 10 nM in assay [1], 12 nM in assay [2], 4320 nM with Ba/F3 (naive) cells and 53 nM in assay [3]. At RET (WT), this compound had an IC50 of 14 nM.

Regarding `Cc1ncc(CN2C3CC2CN(c2ccc(-c4nc(Nc5cc(C)[nH]n5)c5ccccc5n4)cn2)C3)cn1` [Example 25, N-(5-methyl-1H-pyrazol-3-yl)-2-(6-(6-((2-methylpyrimidin-5-yl)methyl)-3,6-diazabicyclo [3.1.1]heptan-3-yl)pyridin-3-yl)quinazolin-4-amine], the 50% growth inhibitory concentration (GI50) in assay [1] amounted to 21 nM; in assay [2], 14 nM; with Ba/F3 (naive) cells, 1650 nM; in assay [3], 50 nM. Also, the half-maximal inhibitory concentration (IC50) at RET (WT) amounted to 7 nM.

In the case of `Cc1cnc(CN2C3CC2CN(c2ccc(-c4nc(Nc5cc(C)[nH]n5)c5ccccc5n4)cn2)C3)cn1` [Example 26, N-(5-methyl-1H-pyrazol-3-yl)-2-(6-(6-((5-methylpyrazin-2-yl)methyl)-3,6-diazabicyclo [3.1.1]heptan-3-yl)pyridin-3-yl)quinazolin-4-amine], the GI50 in assay [1] stood at 10 nM; in assay [2], 10 nM; in the assay with Ba/F3 (naive) cells it was 973 nM; in assay [3], 37 nM. Also, half-maximal inhibition on RET (WT) (IC50) required 7 nM.

Turning to `COc1ccc(CN2CCN(c3ccc(-c4nc(Nc5cc(C)[nH]n5)c5ccccc5n4)cn3)CC2(C)C)cn1` [Example 29, 2-(6-(4-((6-meth-oxypyridin-3-yl)methyl)-3,3-dimethyl-piperazin-1-yl)pyridin-3-yl)-N-(5-methyl-1H-pyrazol-3-yl)quinazolin-4-amine], the 50% growth inhibitory concentration (GI50) stood at 89 nM in assay [1], 164 nM in assay [2], 6320 nM in the assay with Ba/F3 (naive) cells and 454 nM in assay [3]. Also, on RET (WT), the IC50 came to 123 nM.

With `COc1ccc(CN2CCCN(c3ccc(-c4nc(Nc5cc(C)[nH]n5)c5ccccc5n4)cn3)CC2)cn1` [Example 30, 2-(6-(4-((6-methoxypyridin-3-yl)methyl)-1,4-diazepan-1-yl)pyridin-3-yl)-N-(5-methyl-1H-pyrazol-3-yl)quinazolin-4-amine], the GI50 in assay [1] stood at 25 nM; in assay [2], 44 nM; in the assay with Ba/F3 (naive) cells, 1130 nM; in assay [3], 99 nM. The compound further yielded an IC50 at RET (WT) of 34 nM.

With `COc1ccc(CN2C[C@@H]3C[C@H]2CN3c2ccc(-c3nc(Nc4cc(C)[nH]n4)c4ccccc4n3)cn2)cn1` [Example 31, 2-(6-((1S,4S)-5-((6-methoxy-pyridin-3-yl)methyl)-2,5-diazabicyclo [2.2.1]heptan-2-yl)pyridin-3-yl)-N-(5-methyl-1H-pyrazol-3-yl)quinazolin-4-amine], the GI50 in assay [1] came out at 12 nM; in assay [2], 18 nM; in the assay with Ba/F3 (naive) cells, 1680 nM; in assay [3], 66 nM. Also, half-maximal inhibition against RET (WT) (IC50) required 25 nM.
